# In ChEMBL document CHEMBL1201862, “PubChem BioAssay data set” (2004):
#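 48-hour exposure; five concentrations; linearly interpolated endpoints. At the GI50, growth is halved.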 Activity calls are given as the source filed them. Rule as the data show it: active = GI50 up to about 1.1 µM and inactive = higher.
# Assays:
# Assay in all cases: NCI tumour cell line growth inhibition, 48 h
# NCI-H23 = test system: NCI-H23
# SN12C = test system: SN12C
# NCI-H226 = test system: NCI-H226
# NCI-H522 = test system: NCI-H522
# Malme-3M = test system: Malme-3M
# HOP-62 = test system: HOP-62
# UACC-62 = test system: UACC-62
# SNB-75 = test system: SNB-75
# OVCAR-4 = test system: OVCAR-4
# KM12 = test system: KM12
# SK-MEL-28 = test system: SK-MEL-28
# ACHN = test system: ACHN
# IGROV-1 = test system: IGROV-1
# TK-10 = test system: TK-10
# U-251 = test system: U-251
# UO-31 = test system: UO-31
# RXF 393 = test system: RXF 393
# HCT-15 = test system: HCT-15
# OVCAR-8 = test system: OVCAR-8
# UACC-257 = test system: UACC-257
# SK-MEL-2 = test system: SK-MEL-2
# SF-539 = test system: SF-539
# KM-20L2 = test system: KM-20L2
# SK-OV-3 = test system: SK-OV-3
# SW-620 = test system: SW-620
# NCI-H460 = test system: NCI-H460
# OVCAR-5 = test system: OVCAR-5
# HCT-116 = test system: HCT-116
# COLO 205 = test system: COLO 205
# HOP-92 = test system: HOP-92
# CAKI-1 = test system: CAKI-1
# DMS-114 = test system: DMS-114
# LOX IMVI = test system: LOX IMVI
# M14 = test system: M14
# HL-60 = test system: HL-60
# DMS-273 = test system: DMS-273
# M19-MEL = test system: M19-MEL
# HT-29 = test system: HT-29
# HOP-18 = test system: HOP-18
# SNB-78 = test system: SNB-78
# 786-0 = test system: 786-0
# A549 = test system: A549
# RPMI-8226 = test system: RPMI-8226
# SF-295 = test system: SF-295
# DLD-1 = test system: DLD-1
# SF-268 = test system: SF-268
# SR = test system: SR
# CCRF-CEM = test system: CCRF-CEM
# SK-MEL-5 = test system: SK-MEL-5
# OVCAR-3 = test system: OVCAR-3
# K562 = test system: K562
# MCF7 = test system: MCF7
# HCC 2998 = test system: HCC 2998
# PC-3 = test system: PC-3
# T47D = test system: T47D
# MOLT-4 = test system: MOLT-4
# A498 = test system: A498
# Hs-578T = test system: Hs-578T
# BT-549 = test system: BT-549
# SNB-19 = test system: SNB-19
# MDA-MB-435 = test system: MDA-MB-435
# NCI/ADR-RES = test system: NCI/ADR-RES
# EKVX = test system: EKVX
# MDA-MB-231 = test system: MDA-MB-231
# DU-145 = test system: DU-145
compound,measurement,setting,value
Cc1cc(O)nc(NNC(C#N)c2ccc(N(C)C)cc2)n1 (configuration not stated),GI50,NCI-H23,> 100000 nM (inactive)
same,GI50,SN12C,> 100000 nM (inactive)
same,GI50,NCI-H226,> 100000 nM (inactive)
same,GI50,NCI-H522,> 100000 nM (inactive)
same,GI50,Malme-3M,> 100000 nM (inactive)
same,GI50,HOP-62,> 100000 nM (inactive)
same,GI50,UACC-62,> 100000 nM (inactive)
same,GI50,SNB-75,> 100000 nM (inactive)
same,GI50,OVCAR-4,> 100000 nM (inactive)
same,GI50,KM12,> 100000 nM (inactive)
same,GI50,SK-MEL-28,> 100000 nM (inactive)
same,GI50,ACHN,> 100000 nM (inactive)
same,GI50,IGROV-1,> 100000 nM (inactive)
same,GI50,TK-10,> 100000 nM (inactive)
same,GI50,U-251,> 100000 nM (inactive)
same,GI50,UO-31,> 100000 nM (inactive)
same,GI50,RXF 393,> 100000 nM (inactive)
same,GI50,HCT-15,> 100000 nM
same,GI50,OVCAR-8,> 100000 nM (inactive)
same,GI50,UACC-257,> 100000 nM (inactive)
same,GI50,SK-MEL-2,> 100000 nM (inactive)
same,GI50,SF-539,> 100000 nM (inactive)
same,GI50,KM-20L2,> 100000 nM (inactive)
same,GI50,SK-OV-3,> 100000 nM (inactive)
same,GI50,SW-620,> 100000 nM (inactive)
same,GI50,NCI-H460,> 100000 nM (inactive)
same,GI50,OVCAR-5,> 100000 nM (inactive)
same,GI50,HCT-116,> 100000 nM (inactive)
same,GI50,COLO 205,> 100000 nM (inactive)
same,GI50,HOP-92,> 100000 nM (inactive)
same,GI50,CAKI-1,> 100000 nM (inactive)
same,GI50,DMS-114,> 100000 nM (inactive)
same,GI50,LOX IMVI,> 100000 nM (inactive)
same,GI50,M14,> 100000 nM (inactive)
same,GI50,HL-60,> 100000 nM (inactive)
same,GI50,DMS-273,> 100000 nM (inactive)
same,GI50,M19-MEL,> 100000 nM (inactive)
same,GI50,HT-29,> 100000 nM (inactive)
same,GI50,HOP-18,> 100000 nM (inactive)
same,GI50,SNB-78,> 100000 nM (inactive)
same,GI50,786-0,> 100000 nM (inactive)
same,GI50,A549,> 100000 nM (inactive)
same,GI50,RPMI-8226,> 100000 nM (inactive)
same,GI50,SF-295,> 100000 nM (inactive)
same,GI50,DLD-1,> 100000 nM (inactive)
same,GI50,SF-268,> 100000 nM (inactive)
same,GI50,SR,92900 nM (inactive)
same,GI50,CCRF-CEM,> 100000 nM (inactive)
same,GI50,SK-MEL-5,> 100000 nM (inactive)
same,GI50,OVCAR-3,> 100000 nM (inactive)
same,GI50,K562,> 100000 nM (inactive)
CSC1SCC2C(=O)N(C)C(C(C)C)C(=O)OCC(NC(=O)c3cnc4ccccc4n3)C(=O)NC(C)C(=O)N(C)C1C(=O)N(C)C(C(C)C)C(=O)OCC(NC(=O)c1cnc3ccccc3n1)C(=O)NC(C)C(=O)N2C (configuration not stated),GI50,MCF7,7.5 nM (active)
same,GI50,HCC 2998,7.5 nM (active)
same,GI50,SN12C,7.5 nM (active)
same,GI50,PC-3,0.993 nM (active)
same,GI50,NCI-H226,7.5 nM (active)
same,GI50,HOP-62,7.5 nM (active)
same,GI50,T47D,0.391 nM (active)
same,GI50,OVCAR-4,7.5 nM (active)
same,GI50,KM12,7.5 nM (active)
same,GI50,IGROV-1,7.5 nM (active)
same,GI50,TK-10,1.52 nM (active)
same,GI50,MOLT-4,7.5 nM (active)
same,GI50,U-251,7.5 nM (active)
same,GI50,UO-31,8.3 nM (active)
same,GI50,A498,7.5 nM (active)
same,GI50,RXF 393,8.95 nM (active)
same,GI50,HCT-15,10.1 nM
same,GI50,OVCAR-8,7.5 nM (active)
same,GI50,SK-MEL-2,17.8 nM (active)
same,GI50,Hs-578T,0.374 nM (active)
same,GI50,KM-20L2,7.5 nM (active)
same,GI50,SK-OV-3,< 14.7 nM (active)
same,GI50,SW-620,7.5 nM (active)
same,GI50,BT-549,1.58 nM (active)
same,GI50,NCI-H460,7.5 nM (active)
same,GI50,SNB-19,7.5 nM (active)
same,GI50,OVCAR-5,7.5 nM (active)
same,GI50,MDA-MB-435,1.05 nM (active)
same,GI50,HCT-116,8.85 nM (active)
same,GI50,COLO 205,7.5 nM (active)
same,GI50,NCI/ADR-RES,45.4 nM (active)
same,GI50,CAKI-1,7.5 nM (active)
same,GI50,DMS-114,10.4 nM (active)
same,GI50,M14,0.828 nM (active)
same,GI50,HL-60,19.3 nM (active)
same,GI50,DMS-273,7.5 nM (active)
same,GI50,HT-29,7.5 nM (active)
same,GI50,HOP-18,7.5 nM (active)
same,GI50,SNB-78,7.5 nM (active)
same,GI50,EKVX,7.5 nM (active)
same,GI50,A549,7.5 nM (active)
same,GI50,RPMI-8226,7.5 nM (active)
same,GI50,SF-295,7.5 nM (active)
same,GI50,DLD-1,7.5 nM (active)
same,GI50,SF-268,7.5 nM (active)
same,GI50,SR,0.171 nM (active)
same,GI50,MDA-MB-231,0.906 nM (active)
same,GI50,DU-145,3.1 nM (active)
same,GI50,CCRF-CEM,9.25 nM (active)
same,GI50,SK-MEL-5,7.5 nM (active)
same,GI50,OVCAR-3,7.5 nM (active)
